≈ marks a conversion by molar mass, not a printed value. Calls of active or inactive are those of the source. No cut-off for these calls is given here.
Columns and labels:
[1] = human, microsomes, 0.5 h, 2 µM
[2] = Apparent permeability from apical to basolateral side in dog MDCK cells at 20 uM at pH 7.4; type: ADME, cell-based, Canis lupus familiaris
[3] = Solubility of the compound in FaSSIF measured after 16 hrs by HPLC analysis; type: physicochemical
[4] = Fraction unbound in human plasma incubated for 4.5 hrs by LC/MS/MS analysis; type: ADME, cell-free
[5] = biological target: T1, Nuclear receptor ROR-gamma (Homo sapiens) (UniProt P51449); assay: Displacement of [3H]-25-hydroxycholesterol from His-Flag-tagged human RORgammat LBD (309 to 508 residues) expressed in Escherichia coli at 10 uM measured after 4 hrs by Microbeta counter based analysis relative to control
T1 sequence (whole entry): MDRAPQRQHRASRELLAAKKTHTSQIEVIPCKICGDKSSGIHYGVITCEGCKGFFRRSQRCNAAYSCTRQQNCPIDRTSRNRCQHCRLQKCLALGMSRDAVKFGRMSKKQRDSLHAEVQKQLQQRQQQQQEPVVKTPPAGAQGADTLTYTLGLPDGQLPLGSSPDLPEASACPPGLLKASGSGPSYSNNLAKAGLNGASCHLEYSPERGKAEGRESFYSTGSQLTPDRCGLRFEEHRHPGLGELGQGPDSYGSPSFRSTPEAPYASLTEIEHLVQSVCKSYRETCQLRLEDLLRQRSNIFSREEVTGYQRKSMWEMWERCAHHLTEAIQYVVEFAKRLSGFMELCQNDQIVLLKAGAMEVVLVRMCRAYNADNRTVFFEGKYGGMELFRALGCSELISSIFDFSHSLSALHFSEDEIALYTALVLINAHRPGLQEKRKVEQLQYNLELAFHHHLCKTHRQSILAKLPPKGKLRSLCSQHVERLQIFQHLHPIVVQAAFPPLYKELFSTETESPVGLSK

Mus musculus [6] = assay: Antiinflammatory activity against glucose-6-phosphate isomerase induced arthritis mouse model assessed as complete prophylaxis at 100 mg/kg administered once daily for 21 days from GPI immunization; type: functional, organism-based; conditions: time 21.0 day
Mus musculus [7] = assay: Antiinflammatory activity against glucose-6-phosphate isomerase induced arthritis mouse model assessed as improvement in clinical score at 10 to 30 mg/kg administered once daily for 21 days from GPI immunization; type: functional, organism-based; conditions: dose 10-30 mg/kg, time 21.0 day
Mus musculus [8] = assay: Antiinflammatory activity against glucose-6-phosphate isomerase induced arthritis mouse model assessed as reduction in IL-17 mRNA expression in paws at 3 mg/kg administered once daily for 21 days from GPI immunization by Taqman PCR analysis relative to control; type: functional; parameters: scale not given: the % may be the effect or the level left; conditions: time 21 day
Mus musculus [9] = assay: Antiinflammatory activity against glucose-6-phosphate isomerase induced arthritis mouse model assessed as reduction in IL-17 mRNA expression in paws at 10 mg/kg administered once daily for 21 days from GPI immunization by Taqman PCR analysis relative to control; type: functional; parameters: scale not given: the % may be the effect or the level left; conditions: time 21 day
Mus musculus [10] = assay: Antiinflammatory activity against glucose-6-phosphate isomerase induced arthritis mouse model assessed as reduction in IL-17 mRNA expression in paws at 30 mg/kg administered once daily for 21 days from GPI immunization by Taqman PCR analysis relative to control; type: functional; parameters: scale not given: the % may be the effect or the level left; conditions: time 21 day
PBMC = conditions: Mus musculus, dose 30-100 mg/kg, time 20-24 hrs
Description: Inhibition of IL-17A secretion in antiCD3/IL-23 stimulated mouse PBMC cells in mouse plasma at 30 to 100 mg/kg when plasma exposure above 1.8 uM for 20 to 24 hrs

cells = conditions: Mus musculus, PBMC
Description: Inhibition of IL-17A secretion in antiCD3/IL-23 stimulated mouse PBMC cells in mouse plasma preincubated for 2 hrs followed by antiCD3/IL23 stimulation and measured after 6 hrs by Taqman PCR analysis

| Compound | CL free [1] | Papp A→B at 20 µM [2] | solubility at 16 h [3] | fraction unbound at 4.5 h [4] | also measured |
| --- | --- | --- | --- | --- | --- |
| CS(=O)(=O)c1ccc(CNC(=O)c2cc3c(s2)C2(CCN(Cc4ccc(C(F)(F)F)cc4)CC2)OCC3)cc1 | 448 mL/min/kg |  |  |  |  |
| CCS(=O)(=O)c1ccc(CNC(=O)c2cc3c(s2)C2(CCN([C@H](C)c4cnc(C(F)(F)F)nc4)CC2)O[C@@H](C)C3)cc1 | 36.2 mL/min/kg | 7.57 ×10⁻⁶ cm/s | 24 µg/mL (≈ 38.5 µM) | 0.041 |  |
| CS(=O)(=O)c1ccc(CNC(=O)c2cc3c(s2)C2(CCN(Cc4ccc(C#N)cc4)CC2)OCC3)cc1 | 80.7 mL/min/kg |  |  |  |  |
| CCS(=O)(=O)c1ccc(CNC(=O)c2cc3c(s2)C2(CCN([C@H](C)c4cnc(C(F)(F)F)nc4)CC2)OCC3)cc1 | 69.5 mL/min/kg | 8.56 ×10⁻⁶ cm/s | 16 µg/mL (≈ 26.3 µM) | 0.056 |  |
| CS(=O)(=O)c1ccc(CNC(=O)c2cc3c(s2)C2(CCN(Cc4ccc(Cl)cc4)CC2)OCC3)cc1 | 495 mL/min/kg |  |  |  |  |
| CCS(=O)(=O)c1ccc(CNC(=O)c2cc3c(s2)C2(CCN([C@H](C)c4ccc(C#N)cc4)CC2)OCC3)nc1 | 92.2 mL/min/kg | 8.5 ×10⁻⁶ cm/s | 185 µg/mL (≈ 328 µM) | 0.05 |  |
| CCS(=O)(=O)c1ccc(CNC(=O)c2cc3c(s2)C2(CCN([C@H](C)c4cnc(C(F)(F)F)nc4)CC2)O[C@@H](C)C3)nc1 | 32 mL/min/kg | 9.07 ×10⁻⁶ cm/s | 220 µg/mL (≈ 353 µM) | 0.12 |  |
| C[C@H](c1ccc(C#N)cc1)N1CCC2(CC1)OCCc1cc(C(=O)NCc3ccc(S(C)(=O)=O)cc3)sc12 | 218 mL/min/kg |  |  |  |  |
| CS(=O)(=O)c1ccc(CNC(=O)c2cc3c(s2)C2(CCN(Cc4ccc(Cl)cc4Cl)CC2)OCC3)cc1 | 3450 mL/min/kg |  |  |  |  |
| COc1ccccc1-n1cc(CN2CCC3(CC2)OCC(F)(F)c2cc(Cl)sc23)c(C)n1 |  |  |  |  | Activity [5]: 52% |
| CCS(=O)(=O)c1ccc(CNC(=O)c2cc3c(s2)C2(CCN([C@H](C)c4ccc(C#N)cc4)CC2)OCC3)cc1 | 406 mL/min/kg | 7.07 ×10⁻⁶ cm/s | 9 µg/mL (≈ 16 µM) | 0.02 | Activity (Mus musculus [6]): Active; Activity (Mus musculus [7]): Active; Activity (Mus musculus [8]): 82%; Activity (Mus musculus [9]): 90%; Activity (Mus musculus [10]): 88%; inhibition (PBMC): Active; IC50 (cells): 1800 nM |
